Eight compounds from patent US20130065757A1, “CHEMICAL COMPOUNDS” (Syngenta Limited, priority 2010, published 2013) can be followed below.

Molecules are shown by their SMILES.

What all share (assay type): in vivo
Assay [1] concerns Echinochloa crus-galli (ECHCG). The assay is described as follows: Pre-emergence biological efficacy, glasshouse pot test. The settings on record: 312 h, 1,000 g/ha, evaluated after 13 days, 100=total damage, 0=no damage, read-out: Percentage damage caused to weed species, pre-emergence, ECHCG. The method, then: (§1) Seeds of Alopecurus myosuroides (ALOMY), Setaria faberi (SETFA), Echinochloa crus-galli (ECHCG), Solanum nigrum (SOLNI), Amaranthus retroflexus (AMARE) and Ipomoea hederaceae (IPOHE) were sown in standard soil in pots. After cultivation for one day under controlled conditions in a glasshouse (at 24/16° C., day/night; 14 hours light; 65% humidity), the plants were sprayed with an aqueous spray solution derived from the formulation of the technical active ingredient in acetone/water (50:50) solution containing 0.5% Tween 20 (polyoxyethylene sorbitan monolaurate, CAS RN 9005-64-5) to give a final dose of 1000 g/ha of test compound.
(§2) The test plants were then grown under controlled conditions in the glasshouse (at 24/16° C., day/night; 14 hours light; 65% humidity) and watered twice daily. After 13 days the test was evaluated (100=total damage to plant; 0=no damage to plant).

The subject of assay [2] is Alopecurus myosuroides (ALOMY). Described as above. The settings on record: 312 h, 1,000 g/ha, evaluated after 13 days, 100=total damage, 0=no damage, read-out: Percentage damage caused to weed species, pre-emergence, ALOMY. The method, then:
as §1, §2

Assay [3] concerns Setaria faberi (SETFA). Described as above. The settings on record: 312 h, 1,000 g/ha, evaluated after 13 days, 100=total damage, 0=no damage, read-out: Percentage damage caused to weed species, pre-emergence, SETFA. The method, then:
as §1, §2

The test system of assay [4] is Solanum nigrum (SOLNI). The assay is described as above. The following applies: 312 h, 1,000 g/ha, evaluated after 13 days, 100=total damage, 0=no damage, read-out: Percentage damage caused to weed species, pre-emergence, SOLNI. The method, then:
as §1, §2

For assay [5], the system named is Amaranthus retroflexus (AMARE). The assay is described as above. The following applies: 312 h, 1,000 g/ha, evaluated after 13 days, 100=total damage, 0=no damage, read-out: Percentage damage caused to weed species, pre-emergence, AMARE. The method, then: as §1, §2
The test system of assay [6] is Ipomoea hederaceae (IPOHE). Described as above. The following applies: 312 h, 1,000 g/ha, evaluated after 13 days, 100=total damage, 0=no damage, read-out: Percentage damage caused to weed species, pre-emergence, IPOHE. On the procedure: as §1, §2
Assay [7] relates to Echinochloa crus-galli (ECHCG). Nature of the assay: Post-emergence biological efficacy, glasshouse pot test. The following applies: 312 h, 1,000 g/ha, post-emergence (sprayed after 8 days), evaluated after 13 days, 100=total damage, 0=no damage, read-out: Percentage damage caused to weed species, post-emergence, ECHCG. The method, then:
as §1, with “8 days” for “one day”
(§3) The test plants were then grown on under controlled conditions in a glasshouse (at 24/16° C., day/night; 14 hours light; 65% humidity) and watered twice daily. After 13 days the test was evaluated (100=total damage to plant; 0=no damage to plant).

In assay [8] the test system is Alopecurus myosuroides (ALOMY). The assay is described as above. The settings on record: 312 h, 1,000 g/ha, post-emergence (sprayed after 8 days), evaluated after 13 days, 100=total damage, 0=no damage, read-out: Percentage damage caused to weed species, post-emergence, ALOMY. On the procedure: as §1, with “8 days” for “one day”
as §3

For assay [9], the system named is Setaria faberi (SETFA). The assay is described as above. The settings on record: 312 h, 1,000 g/ha, post-emergence (sprayed after 8 days), evaluated after 13 days, 100=total damage, 0=no damage, read-out: Percentage damage caused to weed species, post-emergence, SETFA. The method, then:
as §1, with “8 days” for “one day”
as §3

Assay [10] deals with Solanum nigrum (SOLNI). The assay is described as above. The following applies: 312 h, 1,000 g/ha, post-emergence (sprayed after 8 days), evaluated after 13 days, 100=total damage, 0=no damage, read-out: Percentage damage caused to weed species, post-emergence, SOLNI. The method, then: as §1, with “8 days” for “one day”
as §3

For assay [11], the system named is Amaranthus retroflexus (AMARE). Described as above. The settings on record: 312 h, 1,000 g/ha, post-emergence (sprayed after 8 days), evaluated after 13 days, 100=total damage, 0=no damage, read-out: Percentage damage caused to weed species, post-emergence, AMARE. On the procedure:
as §1, with “8 days” for “one day”
as §3

Assay [12] concerns Ipomoea hederaceae (IPOHE). The assay is described as above. The following applies: 312 h, 1,000 g/ha, post-emergence (sprayed after 8 days), evaluated after 13 days, 100=total damage, 0=no damage, read-out: Percentage damage caused to weed species, post-emergence, IPOHE. On the procedure:
as §1, with “8 days” for “one day”
as §3

For `COC(=O)c1nc(Cl)cc(N)c1C` [Compound 2-1, 4-amino-6-chloro-3-methyl-pyridine-2-carboxylic acid methyl ester], the pest or weed control at 1000 g/ha in assay [1] stood at 70%; in assay [2] it was 90%; in the assay on Setaria faberi (SETFA) [3], 80%; in the assay with Solanum nigrum (SOLNI) [4] it was 100%; in [5], 100%; in [6], 80%. Also, the pest or weed control at 1000 g/ha in assay [7] turned out to be 60%; in assay [8] it was 90%; in the assay with Setaria faberi (SETFA) [9], 100%; in the assay with Solanum nigrum (SOLNI) [10], 90%; in assay [11], 100%; in [12], 50%.

`C/C=C\c1c(N)cc(Cl)nc1C(=O)OC` [2-5 (Z isomer), (Z)-4-Amino-6-chloro-3-(prop-1-enyl)-pyridine-2-carboxylic acid methyl ester]: the pest or weed control at 1000 g/ha in assay [1] was 70%; in [2], 90%; in the assay with Setaria faberi (SETFA) [3], 100%; with Solanum nigrum (SOLNI) [4], 100%; in assay [5], 100%; in assay [6], 90%. The pest or weed control at 1000 g/ha stood at 60% in assay [7]; 50% in assay [8]; 80% with Setaria faberi (SETFA) [9]; 100% in the assay on Solanum nigrum (SOLNI) [10]; 100% in assay [11]; 50% in assay [12].

Consider `C=C(C)Cc1c(N)cc(Cl)nc1C(=O)OC` [Compound 2-8, 4-amino-6-chloro-3-(2-methyl-prop-2-enyl)-pyridine-2-carboxylic acid methyl ester], for which the pest or weed control at 1000 g/ha in [1] came out at 0%; in assay [2], 10%; with Setaria faberi (SETFA) [3] it was 10%; in the assay with Solanum nigrum (SOLNI) [4] it was 80%; in [5] it was 40%; in assay [6] it was 80%. Also, the pest or weed control at 1000 g/ha worked out at 0% in [7]; 10% in assay [8]; 10% in the assay on Setaria faberi (SETFA) [9]; 80% in the assay on Solanum nigrum (SOLNI) [10]; 70% in [11]; 50% in assay [12].

Consider `C=Cc1c(NCC(C)O)cc(Cl)nc1C(=O)OC` (stereo not drawn) [Compound 21-4, 6-Chloro-3-ethenyl-4-(2-hydroxypropylamino)-pyridine-2-carboxylic acid methyl ester], for which the pest or weed control at 1000 g/ha in [1] was determined as 90%; in [2], 90%; in the assay with Setaria faberi (SETFA) [3], 90%; with Solanum nigrum (SOLNI) [4], 100%; in assay [5], 100%; in assay [6], 80%. Moreover, the pest or weed control at 1000 g/ha in assay [7] was 80%; in [8], 70%; with Setaria faberi (SETFA) [9], 80%; with Solanum nigrum (SOLNI) [10], 100%; in assay [11], 100%; in [12] it was 50%.

Turning to `C=Cc1c(N2CCCC2)cc(Cl)nc1C(=O)OC` [Compound 31-4, 6-Chloro-3-ethenyl-4-pyrrolidin-1-yl-pyridine-2-carboxylic acid methyl ester], the pest or weed control at 1000 g/ha in assay [1] was 10%; in assay [2], 60%; in the assay on Setaria faberi (SETFA) [3], 50%; in the assay on Solanum nigrum (SOLNI) [4], 90%; in assay [5] it was 100%; in [6] it was 80%. The pest or weed control at 1000 g/ha in [7] is 20%; in [8], 20%; in the assay on Setaria faberi (SETFA) [9], 50%; with Solanum nigrum (SOLNI) [10] it was 90%; in assay [11], 90%; in assay [12], 70%.

As to `C=Cc1c(C(=O)OC)nc(Cl)c(F)c1N` [Compound 2-12, 4-amino-6-chloro-3-ethenyl-5-fluoro-pyridine-2-carboxylic acid methyl ester], the pest or weed control at 1000 g/ha came to 100% in assay [1]; 100% in assay [2]; 90% in the assay on Setaria faberi (SETFA) [3]; 100% in the assay on Solanum nigrum (SOLNI) [4]; 100% in [5]; 100% in assay [6]. The pest or weed control at 1000 g/ha in assay [7] amounted to 80%; in assay [8], 80%; in the assay with Setaria faberi (SETFA) [9], 90%; with Solanum nigrum (SOLNI) [10] it was 100%; in [11] it was 100%; in assay [12], 80%.

As for `C=Cc1c(NC2CCCC2)cc(Cl)nc1C(=O)OC` [Compound 27-4, 6-Chloro-4-cyclopentylamino-3-ethenyl-pyridine-2-carboxylic acid methyl ester], the pest or weed control at 1000 g/ha in [1] is 10%; in assay [2] it was 50%; in the assay on Setaria faberi (SETFA) [3] it was 70%; in the assay on Solanum nigrum (SOLNI) [4], 100%; in assay [5], 100%; in [6] it was 50%. The pest or weed control at 1000 g/ha worked out at 10% in assay [7]; 10% in assay [8]; 70% with Setaria faberi (SETFA) [9]; 80% in the assay with Solanum nigrum (SOLNI) [10]; 100% in assay [11]; 60% in [12].

Take `C=CCc1c(N)cc(Cl)nc1C(=O)OC` [Compound 2-7, 4-amino-6-chloro-3-(prop-2-enyl)-pyridine-2-carboxylic acid methyl ester]: the pest or weed control at 1000 g/ha was 40% in assay [1]; 30% in assay [2]; 40% with Setaria faberi (SETFA) [3]; 90% with Solanum nigrum (SOLNI) [4]; 90% in assay [5]; 70% in [6]. The pest or weed control at 1000 g/ha in [7] is 10%; in assay [8] it was 20%; in the assay with Setaria faberi (SETFA) [9], 30%; in the assay on Solanum nigrum (SOLNI) [10] it was 90%; in [11] it was 90%; in [12] it was 50%.
